# Laboratory results from US20090118204A1, “Methods and Compositions Related to Esculentoside A” (UNIVERSITY OF ROCHESTER, priority 2004, published 2009).
# “Also recorded” adds a separate entry of the source. Where two headings read alike, the source gives them in different places.
# Key:
# [1] = tested on: C57BL/6 mice; test: IR-induced early soft tissue (skin) toxicity in mice; format: in vivo, mouse; conditions: for skin damage score: day 19 after 30 Gy single dose IR, EsA 10 mg/kg i.p., Celebrex 50 mg/kg intragastric, 16 h before then daily, Table 4 criteria 1.0 normal to 5.0 necrosis, control above 4.5
# Protocol: EsA protects the soft tissue from IR-induced damage. IR sensitive and IL1β high expressing C57BL/6 mice are irradiated with 30 Gy and the skin damage is measured with a preclinical criteria (Table 4).
# The effect of EsA was examined with this model system. […] The difference was statistically significant (FIG. 7).
# A repeat experiment was performed with an increased number of mice (10 mice/group), and the EsA protective effect was confirmed.
# [2] = tested on: Lewis' lung carcinoma cells; test: Tumor growth of Lewis' lung carcinoma in syngeneic mice; format: in vivo, mouse; conditions: daily for 20 days, same dose as in soft tissue protection
# Description: Considering that EsA is used as a radioprotector in patients with tumors, its effect on tumor growth is a critical issue for its application.
# [3] = molecular target: T1, glucocorticoids receptor (GR) (Mus musculus, UniProt P06537); test: CAT reporter assay for hormone transactivity in E8.2.A3 cells, GR; format: cell-based; conditions: 44 hours; EsA 0.4 ng/ml to 40000 μg/ml; Dex 5×10^−7 M
# T1 construct: expressed in transfected cells
# Protocol: (§1) Structurally, EsA has a certain similarity with steroidal hormone, especially a steroid-like back-bone. […] A sensitive reporter system for the hormone transactivity of glucocorticoids receptor (GR) and androgen receptor (AR) was set up as elucidated in the chart (FIG. 12). […] Individual clones with stably transfected mGR and CAT reporter gene were selected with 400 μg/ml of G418 in DMEM medium containing 3% charcoal stripped new born calf serum. […] The treated cells were washed with phosphate buffer saline (PBS) once. To each well, 0.25 ml of 0.25M Tris-HCl was added. The plates underwent 3 cycles of freeze and thaw at −70° C. and room temperature followed by heating at 65° C. for 10 min by floating the plates in a hot water bath. Then, 0.1 ml of cell lysate from each well was used for the CAT assay. […] Briefly, 100 μl of cell lysate from each well were mixed with 150 μl reaction solution (128 μl of 0.25 M Tris-HCl, pH 7.8, 2 μl of the commercial ^3H-acetyl CoA and 20 μl of 2 mg/ml chloramphenicol) in the scintillation vials. To each vial, 2 ml non-aqueous scintillation fluid was added and mixed with the reaction by shaking or vortexing. The vials were counted 3-6 times in a scintillation counter at regular intervals over 1 to 4 hours.
# [4] = molecular target: T2, androgen receptor (AR) (Mus musculus, UniProt P19091); test: CAT reporter assay for hormone transactivity in E8.2.A3 cells, AR; format: cell-based; conditions: 44 hours; EsA 0.4 ng/ml to 40000 μg/ml; DHT 5×10^−7 M
# T2 construct: contain high levels of AR; endogenous in cells; host or cells: E8.2.A3 cells (mouse L cell fibroblast variant)
# Protocol: as §1
# [5] = tested on: E8.2.A3 cells; test: Morphological changes and cell death in reporter cells; format: cell-based, mouse; conditions: 44 hours, observed twice a day
# [6] = tested on: NO production in Raw264.7; test: IR-induced NO production (nitrite, Griess) in Raw264.7; format: cell-based, mouse; conditions: EsA 0.5 or 5 μg/ml added 8 hours before 4 Gy; media 24 hours later
# Protocol: (§2) The anti-tumor effectiveness of IR is based in part on triggering the reactive oxygen species and free radicals in tumors; meanwhile, IR also damages normal tissues and causes unwanted toxicity.
# (§3) The study was carried out in Raw264.7 cells that were irradiated with 0, 2, 4 and 8 Gy. […] At this optimal condition, EsA (0.5 or 5 μg/ml) was added 8 hours before the IR at 4 Gy and 24 hours later, the media was harvested and 100 μl of media was measured for NO content in the form of nitrite. […] To see if this inhibition was cell line specific, another human macrophage cell line THP-1 was examined.
# [7] = tested on: NO production in THP-1; test: IR-induced NO production in THP-1; format: cell-based, human; conditions: 0.1, 0.5 and 5 μg/ml EsA; NO up-regulated 5 fold 4 hours after IR
# Protocol: as §2, §3
# [8] = molecular target: T3, ovine COX-1 (Ovis aries, UniProt P05979); test: Cayman COX Inhibitor Screening Assay, COX-1; format: biochemical; conditions: prostanoid quantified by EIA
# T3 construct: purchased Cayman 560131
# Description: (§4) It is known that constitutive COX-1 and inducible COX-2 catalyze the production of prostaglandins (PGs) from arachidonic acid. The Cayman COX Inhibitor Screening Assay kit directly measures PGF2α produced by SnCl2 reduction of COX-derived PGH2. The prostanoid product is quantified via enzyme immunoassay (EIA) using a broadly specific antibody that binds to all the major prostaglandin compounds (FIG. 15A). To distinguish the inhibition of COX-1 from COX-2, both ovine COX-1 and human recombinant COX-2 enzymes were used as targets. […] EsA is a novel COX-2 inhibitor, which accounts for its observed protective effects on skin (FIGS. 5-7) and brain (FIGS. 8-9).
# [9] = molecular target: T4, human recombinant COX-2 (Homo sapiens, UniProt P35354); test: Cayman COX Inhibitor Screening Assay, COX-2; format: biochemical; conditions: prostanoid quantified by EIA
# T4 construct: purchased Cayman 560131
# Description: as §4
# [10] = tested on: IL1β production in Raw 264.7 macrophage cells; test: IR-induced IL1β production (ELISA) in Raw 264.7; format: cell-based, mouse; conditions: 2 Gy, 24 hours culture
# Protocol: IL1β is crucial mediator in early IR toxicity of both brain and soft tissue. […] The protective effect of EsA on early IR toxicity results in part from this effect. First we determined the optimal IR dose to induce IL1 production in Raw 264.7 macrophage cells. Equal numbers of cells were exposed to 0, 2, 4 and 8 Gy IR and 24 hours later, the conditioned media were harvested and 100 μl of media from each sample was measured for IL1β concentration by specific IL1β ELISA using monoclonal antibodies (purchased from R&D Systems, Inc). […] Therefore, 2 Gy was used as optimal IR dose for Raw 264.7 for this set of tests. The cells were treated with 0.1 or 1 μg/ml of EsA for 18 hours, irradiated at 2Gy and then cultured for another 24 hours. The media were measured for protein level of IL1β by ELISA.
# [11] = tested on: IL1β production in A431 human epidermoid carcinoma cells; test: IR-induced IL1β production (ELISA) in A431; format: cell-based
# [12] = tested on: mouse; test: Alopecia and hair regrowth after 30 Gy irradiation; format: in vivo
# [13] = tested on: VEGF production by mouse fibroblast L-929; test: VEGF production by fibroblasts; format: cell-based; conditions: FIG. 10
# [14] = tested on: IL1α production by RAW264.7; test: IL1α production by macrophages; format: cell-based, mouse; conditions: FIG. 29, in vitro macrophages
# [15] = tested on: TNF production by Raw264.7; test: TNF production by macrophages with LPS and radiation; format: cell-based, mouse; conditions: FIG. 31, LPS and radiation
# [16] = tested on: C57BL/6 mice; conditions: 40 Gy whole head; EsA 10 mg/kg i.p., Dex 3 mg/kg i.v. before IR; brains taken 24 h later; P<0.05
# Protocol: 16 hour before the whole heads of mice were irradiated at 40 Gy.
# The mice without radiation served as negative controls. Twenty four hours later, the whole brain was taken out, weighed (wet weight), placed on aluminum foil and placed in an oven at 60° C. At different time points (10 min intervals for the first 2 hours and then 4, 6, 24 hr), the brains were weighed, and the results were expressed as: % water={(wet weight−dry weight)/wet weight}×100%. The higher the % water, the greater the severity of edema. Brain % water as a function of time provided a brain drying curve.
# [17] = tested on: murine ears; conditions: induced by zylene, acute inflammation model; cited from earlier work
# [18] = tested on: rat hind paws; conditions: cited from earlier work; for swelling of hind paws: induced by carrageenan
# [19] = tested on: granuloma induced by cotton pellet; conditions: cited from earlier work
# [20] = tested on: autoimmunity animal model; conditions: in vivo; cited from earlier work
# [21] = tested on: mice; conditions: following LPS challenge; cited from earlier work
# [22] = tested on: peritoneal macrophages; conditions: macrophages from mice pretreated with thioglycolate; cited from earlier work
# [23] = tested on: ICAM-1 and CD18; conditions: LPS-induced; cited from earlier work
# [24] = tested on: activated macrophages; conditions: cited from earlier work
# [25] = tested on: sensitized mice; conditions: mouse, in vivo; cited from earlier work
# [26] = tested on: activated thymocytes; conditions: cited from earlier work
# [27] = tested on: activated splenocytes; conditions: cited from earlier work
# [28] = tested on: prostaglandin E2 (PGE2), platelet-activating factor (PAF), and nitric oxide (NO); conditions: cited from earlier work
# [29] = cited from earlier work
# [30] = tested on: IR brain edema; conditions: cited from earlier work
# [31] = tested on: COX-2 transgenic mice; conditions: mouse, in vivo; cited from earlier work
# [32] = relative long-term use (>2-3 weeks after IR)
# T2 sequence (P19091 whole entry): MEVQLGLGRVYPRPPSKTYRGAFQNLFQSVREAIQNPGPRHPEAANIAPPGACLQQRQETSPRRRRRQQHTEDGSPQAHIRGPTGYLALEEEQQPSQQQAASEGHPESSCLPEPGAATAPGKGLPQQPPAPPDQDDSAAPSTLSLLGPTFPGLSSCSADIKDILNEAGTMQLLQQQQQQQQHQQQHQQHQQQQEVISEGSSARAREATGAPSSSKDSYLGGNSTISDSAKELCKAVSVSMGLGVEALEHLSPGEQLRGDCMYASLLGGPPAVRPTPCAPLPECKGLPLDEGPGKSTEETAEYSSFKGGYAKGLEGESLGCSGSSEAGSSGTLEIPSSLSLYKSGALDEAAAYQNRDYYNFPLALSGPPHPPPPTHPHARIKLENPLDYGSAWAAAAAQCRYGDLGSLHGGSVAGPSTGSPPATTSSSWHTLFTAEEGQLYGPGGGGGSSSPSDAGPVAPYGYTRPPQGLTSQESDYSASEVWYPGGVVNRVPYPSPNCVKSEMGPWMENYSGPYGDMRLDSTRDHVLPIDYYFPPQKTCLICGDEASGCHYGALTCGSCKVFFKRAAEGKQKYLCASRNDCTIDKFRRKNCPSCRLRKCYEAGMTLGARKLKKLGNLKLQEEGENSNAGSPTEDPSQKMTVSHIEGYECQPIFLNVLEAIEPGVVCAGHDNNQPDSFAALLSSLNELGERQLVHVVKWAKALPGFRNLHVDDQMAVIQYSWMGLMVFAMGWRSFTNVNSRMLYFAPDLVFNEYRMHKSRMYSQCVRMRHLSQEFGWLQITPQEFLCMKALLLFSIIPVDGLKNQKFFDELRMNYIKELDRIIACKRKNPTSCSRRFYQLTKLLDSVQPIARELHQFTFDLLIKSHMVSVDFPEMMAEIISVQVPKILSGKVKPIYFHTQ
# T3 sequence (P05979 25-600): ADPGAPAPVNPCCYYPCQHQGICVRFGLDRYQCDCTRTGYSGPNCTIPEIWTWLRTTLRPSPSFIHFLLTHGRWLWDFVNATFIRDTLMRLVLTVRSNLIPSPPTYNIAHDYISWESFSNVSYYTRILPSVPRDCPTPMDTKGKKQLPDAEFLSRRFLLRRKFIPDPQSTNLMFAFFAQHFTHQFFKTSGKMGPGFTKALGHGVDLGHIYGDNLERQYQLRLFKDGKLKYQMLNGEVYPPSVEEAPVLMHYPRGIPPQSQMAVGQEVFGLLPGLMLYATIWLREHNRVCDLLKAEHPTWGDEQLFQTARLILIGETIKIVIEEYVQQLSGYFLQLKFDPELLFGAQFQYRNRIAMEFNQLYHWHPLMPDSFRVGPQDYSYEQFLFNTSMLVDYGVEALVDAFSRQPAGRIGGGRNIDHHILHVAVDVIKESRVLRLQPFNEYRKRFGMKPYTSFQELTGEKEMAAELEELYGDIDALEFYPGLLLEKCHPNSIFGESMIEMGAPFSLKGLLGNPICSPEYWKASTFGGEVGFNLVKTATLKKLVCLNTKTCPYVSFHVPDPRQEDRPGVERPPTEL
# T1 sequence (P06537 whole entry): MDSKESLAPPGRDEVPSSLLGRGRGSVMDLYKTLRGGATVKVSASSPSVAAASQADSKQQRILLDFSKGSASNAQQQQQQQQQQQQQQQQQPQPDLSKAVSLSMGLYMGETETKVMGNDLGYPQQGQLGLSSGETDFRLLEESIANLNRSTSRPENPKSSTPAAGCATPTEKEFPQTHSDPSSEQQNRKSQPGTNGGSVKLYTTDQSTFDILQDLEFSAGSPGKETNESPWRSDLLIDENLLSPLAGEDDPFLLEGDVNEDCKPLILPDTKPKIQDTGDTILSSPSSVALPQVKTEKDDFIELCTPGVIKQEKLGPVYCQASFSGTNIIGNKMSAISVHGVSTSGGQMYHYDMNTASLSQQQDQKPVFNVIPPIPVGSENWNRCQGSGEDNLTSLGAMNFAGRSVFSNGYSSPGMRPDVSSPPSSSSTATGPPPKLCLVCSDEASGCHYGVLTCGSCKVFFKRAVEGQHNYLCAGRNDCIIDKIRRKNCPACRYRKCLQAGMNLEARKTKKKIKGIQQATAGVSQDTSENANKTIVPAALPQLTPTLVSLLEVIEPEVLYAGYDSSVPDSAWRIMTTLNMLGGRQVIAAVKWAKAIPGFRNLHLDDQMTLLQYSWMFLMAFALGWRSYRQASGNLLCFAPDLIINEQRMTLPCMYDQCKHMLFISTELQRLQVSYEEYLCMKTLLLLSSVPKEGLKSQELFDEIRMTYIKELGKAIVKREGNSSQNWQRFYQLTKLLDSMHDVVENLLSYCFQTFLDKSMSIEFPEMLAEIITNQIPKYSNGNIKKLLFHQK
# T4 sequence (P35354 18-604): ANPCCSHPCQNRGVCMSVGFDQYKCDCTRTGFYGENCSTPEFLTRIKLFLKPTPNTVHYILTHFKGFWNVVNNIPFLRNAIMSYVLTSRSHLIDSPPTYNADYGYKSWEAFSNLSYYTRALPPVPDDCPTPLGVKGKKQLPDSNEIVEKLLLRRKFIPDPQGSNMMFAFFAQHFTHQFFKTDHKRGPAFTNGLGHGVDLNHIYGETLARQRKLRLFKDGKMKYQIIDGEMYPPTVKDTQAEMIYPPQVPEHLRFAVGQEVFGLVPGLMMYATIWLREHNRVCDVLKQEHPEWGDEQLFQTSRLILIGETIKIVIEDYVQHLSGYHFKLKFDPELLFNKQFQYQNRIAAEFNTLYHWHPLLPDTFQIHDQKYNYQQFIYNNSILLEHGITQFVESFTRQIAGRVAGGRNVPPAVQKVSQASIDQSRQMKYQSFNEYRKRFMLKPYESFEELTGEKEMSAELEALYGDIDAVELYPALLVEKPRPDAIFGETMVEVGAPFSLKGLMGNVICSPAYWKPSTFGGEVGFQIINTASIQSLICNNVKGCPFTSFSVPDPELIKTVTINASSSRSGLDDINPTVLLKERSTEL
smiles,measurement,setting,value
"Cc1ccc(-c2cc(C(F)(F)F)nn2-c2ccc(S(N)(=O)=O)cc2)cc1 [Celebrex, celecoxib, reference compound]",skin damage score,[1],about 3
"COC(=O)[C@@]1(C)CC[C@]2(C(=O)O)CC[C@]3(C)C(=CC[C@@H]4[C@@]5(C)C[C@H](O)[C@H](O[C@@H]6OC[C@@H](O[C@@H]7O[C@H](CO)[C@@H](O)[C@H](O)[C@H]7O)[C@H](O)[C@H]6O)[C@@](C)(CO)[C@@H]5CC[C@]43C)[C@@H]2C1 [EsA, Esculentoside A]",protection of soft tissue,"[1]; 4 weeks after 30 Gy IR, same dosing",effectively protected the soft tissue
same,skin damage score,[1],about 2
same,early IR skin toxicity,[1]; [32],prevented
same,second wave of IL1β,[1]; [32],blocked
same,signs of sickness,[1]; whole course of EsA treatment,no signs of sickness were observed
same,tumor growth,[2],little effect on tumor growth
same,glucocorticoidal hormone transactivity (CAT activity),[3],neither androgen nor glucocorticoidal hormone transactivity
same,androgen hormone transactivity (CAT activity),[4],neither androgen nor glucocorticoidal hormone transactivity
same,concentration at which death of cells was observed,[5],40000 µg/mL
same,concentration with no morphological change of cells,[5],below 4 mg/ml
same,IR-induced NO production,[6],inhibited
same,reduction of NO production,[7],3 fold
same,effect on COX-1,[8],no effect
same,effect on COX-2,[9],inhibited the COX-2 in a dose-dependent manner
same,IR-induced production of IL1β,[10]; EsA 0.1 μg/ml for 18 hours,dramatically inhibited; also recorded: reduced
same,IR-induced production of IL1β,"[10]; EsA 1 μg/ml for 18 hours, P<0.01",reduced the IL1β to the basal level
same,IL1β induced by IR,"[11]; EsA 0.1 μg/ml, 4 Gy, P<0.01",inhibited; also recorded: reduced
same,IL1β production induced by IR in vitro in epithelial cells,[11]; FIG. 27,inhibitory effect
same,hair regrowth / duration of alopecia,"[12]; 30 Gy, Celebrex i.g. 50 mg/kg for 20 days",after two weeks
same,recovery of cranial alopecia,[12]; EsA compared with celebrex,recovered more quickly and completely
same,VEGF production,[13],inhibitory effect
same,IL1α production,[14],inhibitory effect
same,TNF production,[15],inhibitory effect
same,brain edema (% water),[16],reduction of brain edema was statistically significant; also recorded: less extensive brain edema; also recorded: can reduce IR-induced brain edema
same,swelling of ears,[17],markedly lowered
same,duration of the effects,[18]; acute inflammation models,more than 5 hours
same,swelling of hind paws,[18]; adrenalectomised rat,suppressed
same,swelling of hind paws,[18],inhibited
same,proliferation of granuloma,[19],significantly inhibited
same,inflammation of joint and viscera,[20],decreased
same,"TNF, IL-1 and IL-6 levels in the sera",[21],dose-dependently decreased
same,"release of TNF, IL-1 and IL-6",[22],significantly reduced
same,expression of adhesion molecules ICAM-1 and CD18,[23],suppressed
same,"macrophage functions (phagocytosis, antibody production, secretion of cytokines)",[24],diminished
same,serum hemolysin concentration,[25],markedly decreased
same,apoptosis of activated thymocytes,[26],accelerated
same,production of IL-2,[27],inhibited
same,"production of PGE2, PAF and NO",[28],inhibited
same,water-solubility,[29],high water-solubility
CS(=O)(=O)Nc1ccc([N+](=O)[O-])cc1OC1CCCCC1 [NS-398],induction of prostanoid and IR brain edema,[30]; Moore et al. 2004,blocked
same,IR toxicity in brain and soft tissue,"[30]; mouse, in vivo",protected
COc1ccc2c(c1)c(CC(=O)O)c(C)n2C(=O)c1ccc(Cl)cc1 [indomethacin],microvessel density,[31],strongly decreased
same,tumor progression,[31],inhibited
same,upregulation of angiogenic regulatory genes in mammary tissue,[31],inhibited
